Data on 2 molecules can be found in article PMC7126369, “Identification of a selective inhibitor of IDH2/R140Q enzyme that induces cellular differentiation in leukemia cells” (Cell Communication and Signaling : CCS, 2020).

Where a chain is given by its changes, count along the chain named. Where two headings read alike, the source gives them in different places. Bounds are passed on as bounds.

Data set [1] has as its system AML patients carrying mutant IDH2. Details: method as in PMID 29346478, PMID 29346477. The settings on record: patients responding to Enasidenib; cited from earlier work.
The target of data set [2] is T1, IDH2/R140Q (Homo sapiens, UniProt P48735, R140Q).
T1 construct: FLAG (C); purchased BPS Bioscience
T1 sequence (P48735 40-452 R140Q): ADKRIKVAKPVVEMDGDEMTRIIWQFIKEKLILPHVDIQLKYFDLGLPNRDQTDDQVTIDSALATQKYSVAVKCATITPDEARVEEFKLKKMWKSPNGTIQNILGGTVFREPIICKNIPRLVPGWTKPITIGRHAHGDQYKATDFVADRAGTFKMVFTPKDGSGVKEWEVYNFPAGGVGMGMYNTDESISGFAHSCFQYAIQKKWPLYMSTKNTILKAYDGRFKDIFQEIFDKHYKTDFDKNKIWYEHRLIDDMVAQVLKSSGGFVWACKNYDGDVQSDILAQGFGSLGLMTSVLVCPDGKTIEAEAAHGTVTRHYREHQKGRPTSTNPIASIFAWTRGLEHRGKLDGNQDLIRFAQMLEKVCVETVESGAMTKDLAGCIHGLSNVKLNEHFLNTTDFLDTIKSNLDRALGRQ
Description: Diaphorase/resazurin coupled NADPH depletion enzymatic assay, IDH2/R140Q homodimer. Type of data set: biochemical. The settings on record: read-out: IC50 for α-KG reduction. How it is done: (§1) The compounds were dissolved to a concentration of 20 mM in pure DMSO. Diaphorase/resazurin coupled NADPH deletion or production assays were used to measure the activity of IDH mutants or wild-type IDH (IDH/WT) enzymes. […] Afterwards, 20 μL of the gradient concentrations of compound dilution were added to this mixture and incubated at 25 °C for 1 h or 16 h. […] Further, 20 μL of 4X assay buffer containing 0.6 mM isocitrate was used for enzymatic reaction.

Data set [3] concerns the target T2, IDH2/WT (Homo sapiens, UniProt P48735).
T2 construct: FLAG (C); purchased BPS Bioscience
T2 sequence (P48735 40-452): T1 sequence (P48735 40-452 R140Q) with Q101R
The data set can be described thus: Diaphorase/resazurin coupled NADPH production enzymatic assay, IDH2/WT. Type of data set: biochemical. The following applies: incubation time 16 h, read-out: IC50 for isocitrate to α-KG. As for the experimental part:
as §1

Data set [4] concerns the target T3, IDH1/R132H (Homo sapiens, UniProt O75874, R132H).
T3 construct: FLAG (C); purchased BPS Bioscience
Description: Enzymatic assay, IDH1/R132H. Format: biochemical. The settings on record: incubation time 16 h, read-out: IC50 for α-KG reduction. As for the experimental part:
Analogously, a mixture of the IDH1/R132H enzyme (0.2 μg/mL) and NADPH (30 μM) was prepared in the assay buffer [10 mM MgCl2, 150 mM NaCl, 20 mM Tris-Cl (pH 7.5), 0.05% BSA, and 2 mM β-mercaptoethanol], after which compound dilutions were added and incubated for 16 h at 25 °C. The activity was measured using the same method as for IDH2/R140Q.

Data set [5] addresses T4, IDH1/WT (Homo sapiens, UniProt O75874).
T4 construct: FLAG (C); purchased BPS Bioscience
Description: Enzymatic assay, IDH1/WT. Format: biochemical. The settings on record: incubation time 16 h, read-out: IC50 for isocitrate to α-KG. How it is done:
A mixture of the IDH1/WT (0.08 μg/mL) and NADP (50 μM) was prepared in the assay buffer [10 mM MgCl2, 150 mM NaCl, 20 mM Tris (pH 7.5), 2 mM β-mercaptoethanol, and 0.05% BSA], after which compound dilutions were added and incubated for 16 h at 25 °C. Other operations were referred to the assay of IDH2/WT.

In data set [6] the test system is TF-1(IDH2/R140Q) cells. The data set can be described thus: D-2-HG assay (LC-MS) in cells. Format: cell-based. The settings on record: 72 h, 3 days of treatment, read-out: IC50 of intracellular D-2-HG production. As for the experimental part: (§2) TF-1(IDH2R140Q) cells were seeded in a 12-well plate at a density of 5 × 10^4/mL. The test compound was added in different concentration gradients (3000, 1000, 333.33, 111.11, 37.04, 12.35, 4.12, and 1.37 nM). The cells were collected after 3 days of treatment. The cell pellet was suspended in 100 μL 80% aqueous methanol solution, containing 1 μg/mL Phenacetin as the internal standard. The cell lysate was centrifuged at 13,000 rpm for 10 min. The precipitate was removed at 4 °C and stored in an − 80 °C refrigerator. Before injection, the cell lysate was centrifuged again at 13,000 rpm for 10 min. The supernatant was transferred into the liquid phase cannula for injection. The test instrument was a Q Exactive™ Plus-Orbitrap™ MS, Thermo Scientific benchtop quadrupole-orbitrap high resolution mass spectrometer. The column used was Waters™ ACQUITY™ UPLC HSS-T3–1.8 μm, […] × 100 mm (part No. 186003539). The mobile phase was: Phase A, 0.1% aqueous formic acid (chromatographically pure); and Phase B, acetonitrile (chromatographically pure). The gradients were set as 1% B for 1.5 min → 70% B for 0.5 min → 1% B for 1.5 min → 0% B. The column was re-equilibrated for 2 min between injections. A temperature of 40 °C was set for the column with a flow rate of 0.2 mL/min. […] D-2-HG and Phenacetin were monitored by mass transitions of m/z 147 → m/z 129 and m/z 178 → m/z 147, respectively. […]

Data set [7] deals with TF-1(IDH2/R140Q) cells. The data set can be described thus: GM-CSF-independent proliferation assay. Type of data set: cell-based. The settings on record: 3 μM, 7 days. How it is done: (§3) The cell proliferation was detected by CellTiter 96® AQueous One Solution Cell Proliferation Assay Kit (Promega) according to the protocol. Briefly, TF-1(WT) and TF-1(IDH2/R140Q) cells were cultured in complete growth medium that is supplemented with 2 ng/mL GM-CSF. Prior to the proliferation assay, the cells were washed three times with PBS to eliminate GM-CSF. These cells were transferred to 96 well plates (5000 cells per well), with each well containing 100 μL growth medium without GM-CSF, and treated with CP-17 (1 or 3 μM) for 7 days. Then 20 μL per well of CellTiter 96® AQueous One Solution Reagent were added to each well. The plate was incubated at 37 °C for 4 h in a humidified, 5% CO2 atmosphere, and then the absorbance at 490 nm was recorded using a 96-well plate reader. Three independent repetitive experiments were carried out and analyzed by Graphpad Prism 5.0. […] T-test was used to compare the difference significance with control group and the data meet the assumption of the test.

The test system of data set [8] is TF-1(WT) cells. The data set can be described thus: GM-CSF-independent proliferation assay. Type of data set: cell-based. The settings on record: 3 μM, 7 days. As for the experimental part: as §3
In data set [9] the test system is TF-1(IDH2/R140Q) cells. The data set can be described thus: EPO-induced differentiation assay. Format: cell-based. The following applies: 1 μM, 7 days. As for the experimental part:
TF-1(WT) and TF-1(IDH2/R140Q) cells were washed three times by PBS to remove GM-CSF and treated with CP-17 (1 or 3 μM) and 5 ng/mL EPO for 7 days.
as §2, with “pure).” for “pure). The gradients were set as 1% B for 1.5 min → 70% B for 0.5 min → 1% B for 1.5 min → 0% B. The column was re-equilibrated for 2 min between injections. A temperature of 40 °C was set for the column with a flow rate of 0.2 mL/min.”

In data set [10] the test system is TF-1(IDH2/R140Q) cells. Description: Histone methylation assay (western blot). The settings on record: 1 and 3 μM, 7 days. Type of data set: cell-based. As for the experimental part: TF-1(WT) and TF-1(IDH2/R140Q) cells were treated with CP-17 (1 or 3 μM) in the presence of recombinant human GM-CSF for 7 days and then lysed and evaluated for the expression of H3K9me3, H3K4me3, H3K27me3, and H3 with specific antibodies by western blot. The total amount of histone H3 was used as the loading control. Three independent repetitive experiments were carried out.
For orientation: A western blot detects proteins with antibodies after separation by electrophoresis.

T4 sequence (O75874 whole entry): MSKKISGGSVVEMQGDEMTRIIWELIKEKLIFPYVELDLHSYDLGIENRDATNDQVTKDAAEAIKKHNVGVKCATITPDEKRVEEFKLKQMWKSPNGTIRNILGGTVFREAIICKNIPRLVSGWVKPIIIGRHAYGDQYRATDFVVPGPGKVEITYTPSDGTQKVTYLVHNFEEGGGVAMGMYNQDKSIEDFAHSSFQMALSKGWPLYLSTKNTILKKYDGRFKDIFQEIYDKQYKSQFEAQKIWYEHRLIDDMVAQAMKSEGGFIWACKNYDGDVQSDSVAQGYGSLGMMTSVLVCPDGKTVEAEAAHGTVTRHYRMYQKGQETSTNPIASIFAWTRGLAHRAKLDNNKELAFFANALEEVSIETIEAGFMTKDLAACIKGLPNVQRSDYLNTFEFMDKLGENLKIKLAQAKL
T3 sequence (O75874 whole entry R132H): as the sequence (O75874 whole entry) above, with R132H counted along it

On to `CC(C)(O)CNc1nc(Nc2ccnc(C(F)(F)F)c2)nc(-c2cccc(C(F)(F)F)n2)n1` [Enasidenib], for which the “Patients who develop differentiation syndrome” value in data set [1] is recorded as 11.7%.

On to `Cc1ccc(Cl)cc1NC(=O)Nc1cc(NC(=O)c2ccccc2)ccc1N1CCCC1` [CP-17, N-(3-(3-(5-chloro-2-methylphenyl)ureido)-4-(pyrrolidin-1-yl)phenyl)benzamide], for which the IC50 in [2] (incubation time 1 h) was 99.9 nM; in data set [2] (incubation time 16 h) it was 40.8 nM; in data set [3] it was 2270 nM; in data set [4] it was over 5000 nM; in data set [5], over 5000 nM; in data set [6], 141 nM. Further, the GM-CSF-independent growth entry in [7] is “significantly inhibited”. Also, the Proliferation result in data set [8] is “no obvious effect”. In addition, the “EPO-induced differentiation (color change, hemoglobin γ expression)” value in data set [9] is “restored the EPO-induced color change and hemoglobin γ expression”. Also, in [10], the “Histone methylation (H3K4me3, H3K9me3, H3K27me3)” value is on record as “dose-dependent decrease in histone methylation”.

Usually IC50 stands for the concentration that gives 50% inhibition.
